According to patent US20250034216A1, “STEREOSELECTIVE COVALENT LIGANDS FOR ONCOGENIC AND IMMUNOLOGICAL PROTEINS” (The Scripps Research Institute, priority 2021, published 2025):

Columns and labels:
Assay in all cases: IA-DTB cysteine engagement, GluC + trypsin digest
Format in all cases: binding
Settings in all cases: 22Rv1 cells
[1] = target: T1, SF3B1 965 (Homo sapiens, UniProt O75533+Q7RTV0)
T1 construct: Cysteine engagement data from 22Rv1 cells treated; endogenous in cells; host or cells: 22Rv1
T1 sequence (O75533 whole entry): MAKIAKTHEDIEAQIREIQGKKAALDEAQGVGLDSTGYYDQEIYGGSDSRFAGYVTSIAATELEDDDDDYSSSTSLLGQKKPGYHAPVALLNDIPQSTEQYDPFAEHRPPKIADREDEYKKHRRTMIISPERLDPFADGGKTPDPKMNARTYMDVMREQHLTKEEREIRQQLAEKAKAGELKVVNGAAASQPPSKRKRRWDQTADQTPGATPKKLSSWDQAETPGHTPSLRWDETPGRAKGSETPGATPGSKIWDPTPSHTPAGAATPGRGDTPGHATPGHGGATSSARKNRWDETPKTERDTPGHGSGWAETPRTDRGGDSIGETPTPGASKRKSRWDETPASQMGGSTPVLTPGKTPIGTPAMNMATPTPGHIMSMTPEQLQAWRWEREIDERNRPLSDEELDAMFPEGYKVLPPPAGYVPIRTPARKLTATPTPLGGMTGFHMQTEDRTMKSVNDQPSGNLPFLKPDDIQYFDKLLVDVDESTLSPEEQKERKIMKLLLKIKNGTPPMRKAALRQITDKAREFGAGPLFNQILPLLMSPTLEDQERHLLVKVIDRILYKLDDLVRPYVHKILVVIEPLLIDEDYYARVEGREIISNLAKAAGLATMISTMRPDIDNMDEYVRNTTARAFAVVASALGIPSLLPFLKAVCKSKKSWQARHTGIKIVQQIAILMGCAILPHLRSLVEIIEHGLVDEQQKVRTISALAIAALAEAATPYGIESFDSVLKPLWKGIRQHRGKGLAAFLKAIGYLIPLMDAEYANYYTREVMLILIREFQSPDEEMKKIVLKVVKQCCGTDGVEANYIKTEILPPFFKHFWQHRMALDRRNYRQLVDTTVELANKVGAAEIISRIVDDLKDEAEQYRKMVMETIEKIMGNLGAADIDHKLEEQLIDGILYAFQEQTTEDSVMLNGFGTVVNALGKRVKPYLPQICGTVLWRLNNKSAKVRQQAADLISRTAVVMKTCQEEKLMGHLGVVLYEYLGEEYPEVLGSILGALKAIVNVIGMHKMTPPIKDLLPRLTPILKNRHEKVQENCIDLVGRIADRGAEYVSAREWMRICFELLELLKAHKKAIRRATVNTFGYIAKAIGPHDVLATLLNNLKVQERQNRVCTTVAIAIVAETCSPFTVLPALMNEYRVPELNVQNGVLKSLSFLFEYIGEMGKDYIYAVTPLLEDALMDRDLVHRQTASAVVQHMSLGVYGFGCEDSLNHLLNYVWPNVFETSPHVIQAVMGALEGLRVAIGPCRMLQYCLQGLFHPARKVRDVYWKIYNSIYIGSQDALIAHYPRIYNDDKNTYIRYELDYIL
T1 sequence (Q7RTV0 whole entry): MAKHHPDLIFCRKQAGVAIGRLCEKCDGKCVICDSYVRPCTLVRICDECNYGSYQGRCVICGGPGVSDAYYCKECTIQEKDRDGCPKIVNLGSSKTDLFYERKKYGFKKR
T1 sequence (Q15393 whole entry partner): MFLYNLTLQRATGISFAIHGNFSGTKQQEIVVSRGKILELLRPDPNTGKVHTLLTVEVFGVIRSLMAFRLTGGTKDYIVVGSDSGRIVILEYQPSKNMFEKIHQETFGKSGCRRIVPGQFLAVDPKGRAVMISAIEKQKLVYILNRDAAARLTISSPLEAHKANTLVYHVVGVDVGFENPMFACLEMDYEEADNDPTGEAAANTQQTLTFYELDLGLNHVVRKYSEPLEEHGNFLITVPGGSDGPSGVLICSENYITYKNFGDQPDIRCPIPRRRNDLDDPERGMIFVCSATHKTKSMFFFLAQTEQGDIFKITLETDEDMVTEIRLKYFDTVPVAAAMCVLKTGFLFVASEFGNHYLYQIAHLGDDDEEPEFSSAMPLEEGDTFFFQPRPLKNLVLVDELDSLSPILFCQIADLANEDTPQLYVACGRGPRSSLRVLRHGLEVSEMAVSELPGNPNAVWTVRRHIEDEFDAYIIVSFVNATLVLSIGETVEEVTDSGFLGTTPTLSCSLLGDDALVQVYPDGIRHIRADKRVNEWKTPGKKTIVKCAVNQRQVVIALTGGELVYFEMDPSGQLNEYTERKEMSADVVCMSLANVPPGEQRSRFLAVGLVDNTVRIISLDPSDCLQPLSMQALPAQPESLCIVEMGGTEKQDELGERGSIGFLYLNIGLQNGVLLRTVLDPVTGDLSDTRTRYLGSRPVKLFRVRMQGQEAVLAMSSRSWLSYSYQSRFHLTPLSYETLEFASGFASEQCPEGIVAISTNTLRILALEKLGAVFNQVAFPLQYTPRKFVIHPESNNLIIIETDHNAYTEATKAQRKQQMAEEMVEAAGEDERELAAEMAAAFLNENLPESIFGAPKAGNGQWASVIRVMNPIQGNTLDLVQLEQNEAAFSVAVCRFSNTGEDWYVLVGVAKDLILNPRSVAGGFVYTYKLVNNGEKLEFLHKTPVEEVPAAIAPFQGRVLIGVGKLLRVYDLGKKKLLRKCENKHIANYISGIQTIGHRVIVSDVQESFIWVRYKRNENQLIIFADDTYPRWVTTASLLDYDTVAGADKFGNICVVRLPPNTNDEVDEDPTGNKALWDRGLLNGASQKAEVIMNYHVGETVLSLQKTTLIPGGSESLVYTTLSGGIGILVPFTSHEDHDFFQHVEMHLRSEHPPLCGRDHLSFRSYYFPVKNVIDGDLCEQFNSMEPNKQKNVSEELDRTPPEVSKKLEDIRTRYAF
T1 sequence (Q9BWJ5 whole entry partner): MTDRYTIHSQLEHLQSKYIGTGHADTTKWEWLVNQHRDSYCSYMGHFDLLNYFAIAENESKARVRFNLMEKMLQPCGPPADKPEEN
Protocol: (§1) Sample preparation: Cells (adherent: 15 cm dishes, suspension: 2 million cells/mL) were treated with electrophilic probes in situ for indicated times and concentrations, washed with ice-cold PBS, and flash frozen in liquid nitrogen. Cell pellets were lysed by sonication (8 pulses, 40% power) in 500 μL ice-cold PBS supplemented with cOmplete protease inhibitors (1 tablet/10 mL of PBS). Whole cell lysates protein content was measured using a standard DC protein assay (Bio-Rad) and 500 μL (2 mg/mL protein content) were treated with 5 μL of 10 mM 1A-DTB (in DMSO) for 1 h at ambient temperature with occasional vortexing. Samples were methanol-chloroform precipitated with the addition of 500 μL ice-cold MeOH and 200 μL CHCl3, vortexed, and centrifuged (10 min, 10,000 g). Without disrupting the protein disk, both top and bottom layers were aspirated and the protein disk was washed with 1 mL ice-cold MeOH and centrifuged (10 min, 10,000 g). The pellets were allowed to air dry, and then re-suspended in 90 μL buffer (9 M urea, 10 mM DTT, 50 mM TEAB pH 8.5). Samples were reduced by heating at 65 C for 20 minutes and water bath sonicated as needed to resuspend the protein pellets, followed by alkylation via addition of 10 μL (500 mM) iodoacetamide and incubated at 37 C for 30 min with shaking. Samples were briefly centrifuged, and probe sonicated once more to ensure complete resuspension, and then diluted with 300 μL buffer (50 mM TEAB pH 8.5) to reach final concentration of 2 M urea. […] Digested samples were then diluted with 300 μL wash buffer (50 mM TEAB pH 8.5, 150 mM NaCl, 0.2% NP-40) containing streptavidin-agarose beads (50 μL of 50% slurry in wash buffer) and were rotated at room temperature for 2 hours. Enriched samples were pelleted by centrifugation (2000 g, 2 min) and transferred to BioSpin columns and washed (3×1 mL wash buffer, 3×1 mL PBS, 3×1 mL water). Enriched peptides were eluted by 300 μL 50% acetonitrile with 0.1% formic acid and eluate was evaporated to dryness via speedvac. IA-DTB labeled and enriched peptides were resuspended in 100 μL EPPS buffer (200 mM, pH 8.0) with 30% acetonitrile, vortexed, and water bath sonicated. Samples were TMT labeled with 3 μL of corresponding TMT tag (5 mg tag resuspended in 256 μL acetonitrile), vortexed, and incubated at room temperature for 1 hour. TMT labeling was quenched with the addition of hydroxylamine (5 μL 5% solution in H2O) and incubated for 15 minutes at room temperature. Samples were then acidified with 5 μL formic acid, combined and dried using a SpeedVac. Samples were desalted via Sep-Pak and then high pH fractionated.
(§2) Data processing: Cysteine engagement ratios (probe vs DMSO) were calculated for each peptide-spectra match by dividing each TMT reporter ion intensity by the average intensity for the channels corresponding to DMSO treatment. Peptide-spectra matches were then grouped based on protein ID and residue number (e.g., PSME1 C22), […] ion intensities for the DMSO channels <10,000, coefficient of variation for DMSO channels >0.5, […] TMT reporter ion intensities were normalized to the median summed signal intensity across channels.
(§3) Samples were analyzed by liquid chromatography tandem mass-spectrometry using an Orbitrap Fusion mass spectrometer (Thermo Scientific) coupled to an UltiMate 3000 Series Rapid Separation LC system and autosampler (Thermo Scientific Dionex). The peptides were eluted onto a capillary column (75 μm inner diameter fused silica, packed with C18 (Waters, Acquity BEH C18, 1.7 μm, 25 cm)) or an EASY-Spray HPLC column (Thermo ES902, ES903) using an Acclaim PepMap 100 (Thermo 164535) loading column, and separated at a flow rate of 0.25 μL/min. Data was acquired using an MS3-based TMT method on Orbitrap Fusion or Orbitrap Eclipse Tribrid Mass Spectrometers. […]

[2] = target: T2, SF3B1 796 (Homo sapiens, UniProt O75533)
T2 construct: endogenous in cells; host or cells: 22Rv1
T2 sequence (O75533 whole entry): as the sequence (O75533 whole entry) above
Protocol: as §1, §2, §3

[3] = target: T3, SF3B1 795 (Homo sapiens, UniProt O75533)
T3 construct: endogenous in cells; host or cells: 22Rv1
T3 sequence (O75533 whole entry): as above
Protocol: as §1, §2, §3

[4] = target: T4, SF3B1 933 (Homo sapiens, UniProt O75533+Q7RTV0)
T4 construct: Cysteine engagement data from 22Rv1 cells treated; endogenous in cells; host or cells: 22Rv1
T4 sequence (O75533 whole entry): as above
T4 sequence (Q7RTV0 whole entry): as the sequence (Q7RTV0 whole entry) above
T4 sequence (Q15393 whole entry partner): as the sequence (Q15393 whole entry partner) above
T4 sequence (Q9BWJ5 whole entry partner): as the sequence (Q9BWJ5 whole entry partner) above
Protocol: as §1, §2, §3

[5] = target: T5, SF3B1 1035 (Homo sapiens, UniProt O75533+Q7RTV0)
T5 construct: Cysteine engagement data from 22Rv1 cells treated; endogenous in cells; host or cells: 22Rv1
T5 sequence (O75533 whole entry): as the sequence (O75533 whole entry) above
T5 sequence (Q7RTV0 whole entry): as the sequence (Q7RTV0 whole entry) above
T5 sequence (Q15393 whole entry partner): as the sequence (Q15393 whole entry partner) above
T5 sequence (Q9BWJ5 whole entry partner): as the sequence (Q9BWJ5 whole entry partner) above
Protocol: as §1, §2, §3

[6] = target: T6, SF3B1 1244 (Homo sapiens, UniProt O75533+Q7RTV0)
T6 construct: Cysteine engagement data from 22Rv1 cells treated; endogenous in cells; host or cells: 22Rv1
T6 sequence (O75533 whole entry): as the sequence (O75533 whole entry) above
T6 sequence (Q7RTV0 whole entry): as the sequence (Q7RTV0 whole entry) above
T6 sequence (Q15393 whole entry partner): as the sequence (Q15393 whole entry partner) above
T6 sequence (Q9BWJ5 whole entry partner): as the sequence (Q9BWJ5 whole entry partner) above
Protocol: as §1, §2, §3

[7] = target: T7, SF3B1 1123 (Homo sapiens, UniProt O75533+Q7RTV0)
T7 construct: Cysteine engagement data from 22Rv1 cells treated; endogenous in cells; host or cells: 22Rv1
T7 sequence (O75533 whole entry): as the sequence (O75533 whole entry) above
T7 sequence (Q7RTV0 whole entry): as the sequence (Q7RTV0 whole entry) above
T7 sequence (Q15393 whole entry partner): as the sequence (Q15393 whole entry partner) above
T7 sequence (Q9BWJ5 whole entry partner): as the sequence (Q9BWJ5 whole entry partner) above
Protocol: as §1, §2, §3

[8] = target: T8, PSME1 106 (Homo sapiens, UniProt Q06323)
T8 construct: stereoselectively engaged C22 of endogenous PSME1 in 22Rv1 cells; endogenous in cells; host or cells: 22Rv1
T8 sequence (Q06323 whole entry): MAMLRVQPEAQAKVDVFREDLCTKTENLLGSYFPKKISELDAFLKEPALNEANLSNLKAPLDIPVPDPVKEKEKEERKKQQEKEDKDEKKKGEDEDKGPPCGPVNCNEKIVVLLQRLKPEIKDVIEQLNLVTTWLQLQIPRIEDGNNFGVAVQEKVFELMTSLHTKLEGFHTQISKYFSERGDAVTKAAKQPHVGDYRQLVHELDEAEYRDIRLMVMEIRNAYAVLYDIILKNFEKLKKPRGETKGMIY
Protocol: as §1, §2, §3

[9] = target: T9, PSME1 101 (Homo sapiens, UniProt Q06323)
T9 construct: stereoselectively engaged C22 of endogenous PSME1 in 22Rv1 cells; endogenous in cells; host or cells: 22Rv1
T9 sequence (Q06323 whole entry): as above
Protocol: as §1, §2, §3

Compound	percent engagement relative to DMSO, SF3B1 965 ([1]; 5 uM) [%]	percent engagement relative to DMSO, SF3B1 965 ([1]; 20 uM) [%]	percent engagement relative to DMSO, SF3B1 796 ([2]; 5 uM) [%]	percent engagement relative to DMSO, SF3B1 796 ([2]; 20 uM) [%]	percent engagement relative to DMSO, SF3B1 795 ([3]; 5 uM) [%]	percent engagement relative to DMSO, SF3B1 795 ([3]; 20 uM) [%]	percent engagement relative to DMSO, SF3B1 933 ([4]; 5 uM) [%]	percent engagement relative to DMSO, SF3B1 933 ([4]; 20 uM) [%]	percent engagement relative to DMSO, SF3B1 1035 ([5]; 5 uM) [%]	percent engagement relative to DMSO, SF3B1 1035 ([5]; 20 uM) [%]	percent engagement relative to DMSO, SF3B1 1244 ([6]; 5 uM) [%]	percent engagement relative to DMSO, SF3B1 1244 ([6]; 20 uM) [%]	percent engagement relative to DMSO, SF3B1 1123 ([7]; 5 uM) [%]	percent engagement relative to DMSO, SF3B1 1123 ([7]; 20 uM) [%]	percent engagement relative to DMSO, PSME1 106 ([8]; 5 uM) [%]	percent engagement relative to DMSO, PSME1 106 ([8]; 20 uM) [%]	percent engagement relative to DMSO, PSME1 101 ([9]; 5 uM) [%]	percent engagement relative to DMSO, PSME1 101 ([9]; 20 uM) [%]
C=CC(=O)N1[C@H](c2ccc3c(c2)OCO3)c2[nH]c3ccccc3c2C[C@H]1C(=O)N1CCOCC1 [WX-02-23, 1-((1R,3S)-1-(benzo[d][1,3]dioxol-S-yl)-3-(morpholine-4-carbonyl)-1,3,4,9-tetrahydro-2H-pyrido [3,4-b]indol-2-yl)prop-2-en-1-one]	−15.75	−8.665	−6.42	−5.075	−4.58	−5.905	−7.02	−4.95	−9.265	−6.03	−11.92	−12.54	5.965	21.005	−4.44	−17.66	−4.575	−14.73
C=CC(=O)N1[C@@H](c2ccc3c(c2)OCO3)c2[nH]c3ccccc3c2C[C@@H]1C(=O)N1CCOCC1 [WX-02-43, 1-((1S,3R)-1-(benzo[d][1,3]dioxol-5-yl)-3-(morpholine-4-carbonyl)-1,3,4,9-tetrahydro-2H-pyrido [3,4-b]indol-2-yl)prop-2-en-1-one]	1.985	13.895	6.755	7.34	5.715	3.145	6.345	2.595	1.53	8.13	−1.065	−1.615	1.425	21.84	−7.69	−20.355	−9.325	−5.635
